Target: mCB2 (membranes from HEK293 cells expressing mouse CB2) (Mus musculus, UniProt P47936)
Assay: Mouse CB2 binding assay, [3H]CP-55,940 competition
Settings: CB2 over CB1

mCB2 (membranes from HEK293 cells expressing mouse CB2), sequence (P47936 whole entry): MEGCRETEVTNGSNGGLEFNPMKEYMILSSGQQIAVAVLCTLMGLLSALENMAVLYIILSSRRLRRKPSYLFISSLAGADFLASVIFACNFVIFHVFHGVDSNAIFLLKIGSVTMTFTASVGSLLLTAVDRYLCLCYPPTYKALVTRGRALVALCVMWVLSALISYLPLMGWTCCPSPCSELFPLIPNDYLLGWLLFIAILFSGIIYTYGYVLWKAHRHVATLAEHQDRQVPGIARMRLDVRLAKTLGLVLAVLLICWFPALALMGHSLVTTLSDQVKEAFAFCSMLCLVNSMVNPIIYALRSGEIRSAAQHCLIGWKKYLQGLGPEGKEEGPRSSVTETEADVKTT

For CC1(C)Oc2cc(C34CC5CC(CC(C5)O3)C4)cc(O)c2[C@@H]2C[C@H](O)CC[C@H]21 [compound 16], the “selectivity for CB2” value was 2 fold.
